Key:
[1] = test system: GM-CSF receptors on KG-1 cells; assay: GM-CSF receptor binding assay on KG-1 cells; design: species or system human; settings: 2700 sites/cell, read-out: Kd, low affinity site
Protocol: GM-CSF is radioiodinated by the method of Bolton and Hunter (Bolton, A. E. & Hunter, W. M. (1973) Biochem. J. 133, 529-539) and purified by gel filtration on a Sephadex G-25 column (PD-10, Pharmacia). The resulting ^125 I-GM-CSF has a specific radioactivity of about 1-3×10^6μCi/μMole and a stoichiometry of 0.4-1.2 moles ^125 I per mole of GM-CSF.
The samples are incubated at about 22° C. or 4° C. for 1 hour or 2 hours, respectively. Centrifugation for 21/2 minutes at 600×g yields a cell pellet which is washed twice with IMDM-10% FCS.
To measure the displacement of ^125 I-GM-CSF from receptors by polyclonal antibodies, antisera or pre-immune sera are included in the binding assays. Antibodies that recognize GM-CSF are incubated for about 10 minutes with ^125 I-GM-CSF prior to initiating binding by the addition of KG-1 cells, AML-193 cells or placental membranes. The sheep polyclonal antibody 1418, which recognized the GM-CSF receptor, is pre-incubated for about 10 minutes with KG-1 cells, AML-193 cells or placental membranes. Binding is initiated by ^125 I-GM-CSF addition.
GM-CSF (an article of commerce available, e.g., from Genzyme Corporation, Boston, Mass.) was radioiodinated by the method of Bolton and Hunter [Bolton, A. E. & Hunter, W. M., Biochem., J., 133: 529-539 (1973)] and purified by gel filtration on a Sephadex G-25 column (PD-10, Pharmacia). […]

[2] = molecular target: GM-CSF receptors on placental membranes; assay: GM-CSF receptor binding assay on placental membranes
Protocol: Placental membranes are prepared by homogenization, centrifugation to remove the 100×g fraction, and thorough washing of the 27,300×g fraction. Protease inhibitors may be present in the homogenization and wash buffers. […] Following incubation for about 1 hour at about 22° C., samples are centrifuged for about 21/2 minutes at 800×g and the placental membrane pellet washed twice with IMDM-10% FCS. Cell pellets are counted on a gamma counter. Saturating concentrations of unlabeled GM-CSF are added to control assays to measure non-specific binding. To measure the displacement of ^125 I-GM-CSF from receptors by polyclonal antibodies, antisera or pre-immune sera are included in the binding assays. Antibodies that recognize GM-CSF are incubated for about 10 minutes with ^125 I-GM-CSF prior to initiating binding by the addition of KG-1 cells, AML-193 cells or placental membranes. The sheep polyclonal antibody 1418, which recognized the GM-CSF receptor, is pre-incubated for about 10 minutes with KG-1 cells, AML-193 cells or placental membranes. Binding is initiated by ^125 I-GM-CSF addition. Placental membranes were prepared by homogenization, centrifugation to remove the 100×g fraction, and thorough washing of the 27,300×g fraction. Protease inhibitors were present in the homogenization and wash buffers. […] Cell pellets were counted on a gamma counter. […]

[3] = test system: GM-CSF stimulation of KG-1 cell proliferation; assay: KG-1 cell proliferation assay (MTT); type: cell-based, human
Protocol: The assay for GM-CSF is based on stimulation of proliferation of suitable cells such as KG-1 cells, a cell line established from the bone marrow of a patient with acute myelogenous leukemia. AML-193 cells can also be used in this assay. AML-193 are cells as described in B. Lange et al., Blood, 70: 192-199 (1987). Cells are incubated in microtiter plate wells with dilutions of GM-CSF for about 6 days and then incubated for about an additional 4 hours with the tetrazolium salt MTT (3-(4,5-dimethylthiozol-2-yl)-2,5-diphenyltetrazolium bromide). MTT is converted by mitochondrial dehydrogenase enzymes to a colored reaction product, formazan (Mosmann, I. (1983) J. Immunological Methods 65, 55-63). The formazan is extracted with acidified isopropanol and measured spectrophotometrically. The observed optical density is directly proportional to the log2 cell concentration. The results are expressed as ΔO.D., where ΔO.D. is the optical density of the sample minus the optical density of a baseline control lacking GM-CSF. […] The formazan is extracted with acidified isopropanol and measured spectrophotometrically. […] The results are expressed as ΔO.D., where ΔO.D. is the optical density of the sample minus the optical density of a baseline control lacking GM-CSF. […]

Kd [2]: 860 pM
Substance: ^125 I-GM-CSF: GM-CSF radioiodinated by the method of Bolton and Hunter, purified by gel filtration
Kd [1]: 730 pM
biological activity compared with unlabeled GM-CSF [3]: same biological activity as unlabeled GM-CSF
